Results on three substances are retold here after US20200325183A1, “NS2B AS MARKER FOR ZIKA VIRUS INFECTIONS” (priority 2017, published 2020).

Holding throughout (type): binding, human
Test [1] deals with IgM antibodies in Zika acute and convalescent plasma samples. In words: Full substitution scan peptide microarray, IgM. The note with it: data not shown. An excerpt: In a second screening round of the second study, microarrays with peptide substitution scans of linear WT peptide […] (SEQ ID NO. 9) and cyclic WT peptide KDAEVTGNS (SEQ ID NO. 10) were used to determine essential, conserved and less-conserved/variable amino acid positions and to identify stronger responding peptide variants. Each amino acid position in the WT sequence was systematically exchanged by all 20 physiologic amino acids, and the resulting linear and cyclic peptides and peptide variants were printed in triplicate on the peptide substitution scan microarrays. The immunoreactivity of the peptide variants was tested by incubation with Zika acute and convalescent plasma samples. The assays were carried out in a multiplexed format with fluorescently labeled secondary anti-human IgG and anti-human IgM antibodies to simultaneously analyze the IgG and IgM profiles of each sample.
A substitution analysis was performed with the WT peptide […] (SEQ ID No. 9) and cyclic peptide KDAEVTGNS (SEQ ID NO. 10) to determine essential, conserved and less-conserved/variable amino acid positions and to identify stronger reacting peptide variants.
Each amino acid position in the WT sequence was systematically exchanged by all 20 physiologic amino acids, and the resulting peptides and peptide variants were printed in triplicate on peptide microarrays. […]

Test [2] relates to IgG antibodies in sera of Zika patients. In words: Peptide microarray IgG screening, first study (ZIKV proteome / NS1, NS2a, NS2b arrays). From the text:
In a first study, the inventors characterized the antibody profiles of Zika patients in a systematic manner. Therefore, they translated the proteomes of 15 different ZIKV strains (taken from the NCBI database, see Table 1 below) in the form of overlapping peptides as high-density peptide arrays and used 84 different patient and control sera to screen several thousands of potential antigens for pathogen induced antibodies.
In addition, the inventors investigated the time-dependent antibody variation in patients (acute vs. convalescent stage). They screened patient sera from their collaboration partner in Brazil with different peptide arrays, containing the whole proteome of the ZIKV (first screening round). […] Almost no signals could be observed in control samples. […]
In the first study, sera were diluted 1:1000 in PBS buffer with 0.05% Tween 20 pH 7.4 (PBST) and 10% blocking buffer, incubating the sera for 16 h at 4° C. and 50 RPM orbital shaking. […] Image analysis and quantification was performed with the PepSlide Analyzer software (Sicasys Software GmbH, Heidelberg, Germany).
Samples used for the peptide array experiments of the first study were collected from individuals with acute febrile illnesses enrolled in a prospective cohort study from May 2015 to April 2016. […] For molecular viral diagnosis, quantitative real-time PCR (qRT-PCR) for Dengue (DENV) and Zika (ZIKV) viruses was performed. […]

The subject of test [3] is IgG antibodies in plasma of Zika virus patients. In words: Proteome-wide Zika virus peptide microarray, second study, IgG. The conditions noted are these: plasma 1:250, acute and convalescent samples. From the text:
(§1) In a second more extended study, the inventors further characterized the IgG and IgM antibody profiles of Zika patients in a more comprehensive manner Therefore, they translated the proteomes of 19 Zika virus strains taken from sequencing data from Nicaragua, Colombia, Guatemala, Honduras, Mexico and Panama 100 additional Zika virus proteomes from the USA with a higher sequence heterogeneity into 4,356 different overlapping Zika virus peptides printed in duplicate on high-density peptide arrays for a high-resolution proteome-wide epitope screening.
(§2) The inventors used plasma of 100 Zika virus patients with a confirmed dengue virus naïve status in the acute and convalescent phase (200 samples), plasma of 50 Zika virus patients with a confirmed dengue virus positive status in the acute and convalescent phase (100 samples), 50 plasma samples of dengue virus patients in the convalescent phase taken before the Zika virus outbreak as disease control and plasma of 25 individuals with a confirmed dengue virus and Zika virus negative status as healthy controls. […] The multiplexed IgG and IgM analysis was enabled by highly specific fluorescently labeled anti-human IgG and anti-human IgM secondary antibodies with different fluorescence wavelengths for emission and detection. […]

Test [4] has as its system IgM antibodies in plasma of Zika virus patients. In words: Proteome-wide Zika virus peptide microarray, second study, IgM. The note with it: plasma 1:250, acute and convalescent samples.
From the text: as §1, §2

In test [5] the test system is IgG antibodies in sera of Zika acute and Zika convalescent patients. In words: Chemiluminescence peptide ELISA. The note with it: serum dilution 1:1000, Zika acute and convalescent patient sera. As to the method:
The cyclic peptides and WT peptide were tested by a chemiluminescence ELISA using sera of Zika acute and Zika convalescent patients. A healthy control (HC) sera was included. The ELISA assays were performed under stringent conditions, that is at high serum dilutions (1:1000) to better evaluate the diagnostic potential of the peptide marker. The ELISA results are given in chemiluminescence units (CLUs). Samples were considered as positive, if the CLU of a respective sera is >=2 times over HC value.
For ELISA tests, four cyclic peptides with a Biotin tag preceding the C-terminal cysteine residue were synthesized. The non-cyclic WT peptide (“WT peptide”) was synthesized with a C-terminal Biotin tag at the C-terminus, the amino acid sequence was identical to SEQ ID NO. 9.
Peptide ELISA-Tests were performed on Streptavidin functionalized 96 well microtiterplates (Lumitrac, Greiner BioOne, Germany). The plates were coated with the respective biotinylated peptides with a biotin tag positioned at the C-terminus, preceding the C-terminal cysteine. The plates were incubated overnight at 4° C. with test sera at a dilution of 1:1000 (v/v) in PBST/10% Rockland (PBST=Phosphate buffered saline pH 7.2, 0.05% Tween 20). […] The chemiluminescence was measured after 10 minutes at 425 nm using an automated plate reader (CLARIOstar®. BMG LABTECH GmbH, Germany). […]

Ends that are not written are not given here.

Consider “KDAEVTGNS (also: cyclic) [SEQ ID NO. 10, cyclic WT peptide on substitution scan microarrays]”, for which the “IgM reactivity in substitution scan” value in test [1] was “not a single human sample exhibited any specific IgM reactivity”.

For the substance “NS2b: Zika virus non-structural protein NS2b, cofactor of NS3 protease, displayed as overlapping 15-mer peptides on arrays”, in test [2] (first screening round, arrays with whole proteome content, sera 1:1000), the “IgG antibody reactivity of Zika patients against the whole ZIKV proteome” value is recorded as “most prominent interaction”. Besides, the “IgG antibody reactivity, specific arrays with NS1, NS2a, NS2b content” value in test [2] (second screening round) was “clear signals”. Also, in test [3], the “IgG response, proteome-wide microarray” value is “specific IgG responses”. Moreover, in test [4], the “IgM response, proteome-wide microarray” value is listed as “no specific IgM response”.

In the case of WEKDAEVTGNSPRLD [WT peptide], the “IgM reactivity in substitution scan” value in test [1] was “not a single human sample exhibited any specific IgM reactivity”. Besides, the “IgG reactivity in chemiluminescence ELISA (positive if CLU >=2 times over HC value)” value in test [5] is given as “detected Zika specific antibody responses in acute patient sera as well as in convalescent patient sera”.
